In patent publication US20160176924A1, “MODIFIED PEPTIDES AS POTENT INHIBITORS OF THE PSD-95/NMDA RECEPTOR INTERACTION” (priority 2008, published 2016):

How the values were obtained:
PDZ1-2 of PSD-95 = molecular target: T1, PDZ1-2 of PSD-95 (Homo sapiens, UniProt P78352, I195W); assay: Stopped-flow fluorimetry (fluorescence titration assay); assay type: binding
T1 construct: PDZ1-2 (residues 61-249) tandem; made in house; host or cells: E. coli BL21-DE3 pLysS
Method: The HIS-PDZ2 and HIS-PDZ1-2 expression constructs of PSD-95 were genetically manipulated to encode a tryptophan, (in position 51 of SEQ ID NO: 4 and position 145 in SEQ ID NO: 8, respectively) instead of isoleucine. Binding between PDZ2 and PDZ1-2 and peptide ligand 74 was then monitored and quantified, by measuring the fluorescence increase from this tryptophan upon ligand recognition. (excitation λ at 280 nm, emission λ>320 nm). Stopped-flow measurements were performed at 10° C. or 25° C. on an SX-20MV stopped-flow spectrometer (Applied Photophysics, Leatherhead, UK). The peptide, in varying amounts, was rapidly mixed with a constant amount of PDZ and the change in fluorescence was measured over time. The fluorescence versus time plots was fitted to a single or double exponential equation, from which one or two observed rate constants were obtained. Observed rate constants were then plotted against the concentration of the varied species and microscopic rate constants determined by fitting the data to the equation for a bimolecular association (Eq. 1)
kobs=((kon^2(n−[A]0)^2+koff^2+2konkoff(n+[A]0))^0.5 (Eq. 1) […]
The equilibrium dissociation constant Kd of the PDZ-peptide complex was calculated by the experimental determined kon and koff.

[1] = Human blood plasma stability assay; assay type: in vitro ADME
Method: In this assay, the half-life (T1/2) of a compound in blood plasma is measured in vitro, whereby its susceptibility to degradation by proteases, peptidases and general plasma contents is quantified.
Compounds of interest were dissolved in human blood plasma (270 μl; 3H Biomedical, Sweden, cat no 1300-1-P50) to a concentration of 0.25 mM (30 μL of 2.5 mM) and incubated at 37° C. Aliquots (30 μl) were removed at various time intervals (0, 5, 10, 20, 40, 80, 160, 320, 960, 1280, 2550, 4560 and 7240 min) and quenched with 60 μL trichloroacetic acid (aq., 5%). The aliquots were vortexed, and incubated for at least 15 min, at 4° C. prior to centrifugation at 18,000 g for 2 min and the supernatant was analyzed by RP-HPLC to quantify the remaining compound (absorbance at 218 nm).

[2] = system: cultured cortical neurons; assay: Neuronal NMDA excitotoxicity assay (LDH release); assay type: cell-based, rat; conditions: 500 nM
Excerpt: When cultured cortical neurons are exposed to high concentrations of NMDA, an excitoxic cascade is initiated, which leads to cellular damage and ultimately neuronal cell death. Consequently, the cell membranes are destroyed, and cytoplasmic enzymes are released into the cell surroundings. The extent of this neuronal cell death can be quantified by measuring the release of cytoplasmic lactate dehydrogenase (LDH) enzyme into the cell medium. The compounds of interest and control compound (3) are investigated with respect to their abilities to attenuate NMDA-mediated toxicity. Compounds that are active in this assay are both membrane permeable, and can prevent ex vivo excitotoxicity, which are important properties for therapeutics towards excitotoxicity mediated diseases.
Cortical neurons were surgically removed from rats (e.g. E21) and then cultured for 7-9 days in vitro in Neurobasal A medium with B-27 supplement (each supplied by Invitrogen), further supplemented with 1 mM glutamine, 50 units/ml penicillin, and 50 μg/ml streptomycin. The following steps were then performed:
1. Samples of the cultured cortical neurons were removed from the Neurobasal-A based culture medium, at various time points prior to exposure to compound, and placed into “transfection medium” ([…]; as defined by Bading et al (1993) Science 260, 181-186) comprising: 10% modified Minimum Essential Medium (supplied by Invitrogen; product no: 21090022; containing Earles salt, but no L-glutamine), 90% Salt-Glucose-Glycine (SGG) medium: (114 mM NaCl, 0.219% NaHCO3, 5.292 mM KCL, 1 mM MgCl2, 2 mM CaCl2, 10 mM HEPES, 1 mM Glycine, 30 mM glucose, 0.5 mM sodium pyruvate, 0.1% Phenol Red), insulin-transferrin-selenite supplement (supplied by Sigma: 7.5 μg insulin/ml, 7.5 μg transferring/ml and 7.5 ng sodium selenite/ml); with a final osmolarity of 325 mosm/l. All subsequent steps were performed in this TM medium. 2. Samples of neurons are exposed to an NMDAR/PSD-95 inhibitor of the invention (compounds 40, 52-90) at a final concentration of between 0.05-50 μM for a period of between 0.5 to 1.5 hours. […] 3. Each sample of neurons was washed at least one time in TM medium to remove the NMDAR/PSD-95 inhibitor, and placed in TM medium. 4. After various periods of time, the samples of neurons were exposed to NMDA at a concentration of between 10-100 μM for a period of 0.5 to 1.5 hours, preferably 1 hour, after which the samples were again placed in TM medium for 24 hours. 5. LDH in the cell medium was quantified using commercial available kits (e.g. Promega Biotech AB, cat no G1780).

PDZ1-2 tandem of PSD-95 = molecular target: T2, PDZ1-2 tandem of PSD-95 (Homo sapiens, UniProt P78352); assay: FP heterologous competition binding assay; conditions: mean ± SEM
T2 construct: PDZ1-2 (residues 61-249) tandem; made in house; host or cells: E. coli BL21-DE3 pLysS
Excerpt: (§1) Determined IC50 values may be converted to Ki values.^5 Suitable fluorophores include either 5-FAM or Cy5, which may be coupled to a tripeptide (KSG or CSG) linker attached to the N-terminus of the undecapeptide, to give 5-FAM-NR2B, Cy5-NR2B, 5-FAM-CRIPT and Cy5-CRIPT. The 5-FAM fluorophore may be attached to the undecapeptides by coupling with HATU. The Cy5 fluorophore may be conjugated to the undecapeptides by coupling Cy5-maleimide to the cysteine side chain of the tripeptide sequence CSG attached to the N-terminus of the peptide, as detailed in the Methodology section.
(§2) To measure the affinities between non-fluorescent peptides and PDZ domains, heterologous competition bindings assay were performed. This was done by adding increasing concentrations of peptide to a fixed concentration of Cy5-NR2B, 5-FAM-NR2B, Cy5-CRIPT or 5-FAM-CRIPT (50 nM) and PDZ (20 μM for PDZ1, 3 μM for PDZ2 and 1-2 and 5 μM for PDZ3) in the same TBS buffer and conditions as described above. FP values were then fitted to the general equation: Y=Bottom+(Top−Bottom)/[1[…](10̂^X-logIC50)], where X is the logarithmic value of peptide concentration. Hereby the IC50 value was obtained, which is used to calculate the theoretical competitive inhibition constant, Ki.^5
(§3) A convenient and reliable way to examine interactions between peptide analogues and PDZ domains is by using a fluorescence polarization (FP) assay. The three PDZ domains, PDZ1-3, of PSD-95 were expressed individually as set out above, while PDZ1-2 was also expressed as a tandem construct. […] IC50 values were then converted to Ki values.^5

PDZ1 of PSD-95 = molecular target: T3, PDZ1 of PSD-95 (Homo sapiens, UniProt P78352); assay: FP heterologous competition binding assay; conditions: FP competition; mean ± SEM; NA = no activity/affinity
T3 construct: PSD-95 PDZ1 (residues 61-151); made in house; host or cells: E. coli BL21-DE3 pLysS
Excerpt: as §1, §2, §3

PDZ2 of PSD-95 = molecular target: T4, PDZ2 of PSD-95 (Homo sapiens, UniProt P78352); assay: FP heterologous competition binding assay; conditions: FP competition; mean ± SEM; NA = no activity/affinity
T4 construct: PDZ2 (residues 155-249); made in house; host or cells: E. coli BL21-DE3 pLysS
Excerpt: as §1, §2, §3

SMILES: CC[C@H](C)[C@H](NC(=O)CCOCCOCCOCCOCCOCCOCCOCCOCCOCCOCCOCCOCCOCCC(=O)N[C@H](C(=O)N[C@@H](CCC(=O)O)C(=O)N[C@@H](CO)C(=O)N[C@@H](CC(=O)O)C(=O)N[C@H](C(=O)O)C(C)C)[C@@H](C)CC)C(=O)N[C@@H](CCC(=O)O)C(=O)N[C@@H](CO)C(=O)N[C@@H](CC(=O)O)C(=O)N[C@H](C(=O)O)C(C)C [(IESDV)2PEG12 (74), (IESDV)2PEG12]
- Ki (PDZ1-2 of PSD-95): ~100 nM
- degradation in human blood plasma, in words [1]: no significant degradation could be detected over a time period of 6 days
- half-life at […] ([1]; human, plasma, Blood plasma half life (T1/2)): > 133 h
- effect on NMDA-mediated excitotoxicity, in words [2]: inhibit neuronal excitotoxicity, as efficiently as the clinical candidate Tat-N2B (3)
- Ki (PDZ1-2 tandem of PSD-95): ~100 nM
- Ki (PDZ1 of PSD-95): 22000 ± 1400 nM
- Ki (PDZ2 of PSD-95): 3100 ± 130 nM
